From the supplement of paper PMC10307832

compound: C[C@]1(c2nc3c(C(N)=O)cccc3[nH]2)CCCN1 [Veliparib] + Cc1cc(Nc2cc(N3CCN(C)CC3)nc(Sc3ccc(NC(=O)C4CC4)cc3)n2)n[nH]1 [Tozasertib] (partner 0.1 µM); assay: relative viability (nuclei count vs DMSO), 5 days (fraction); higher = more cells survive; settings: first compound 0.02 µM
Procedure, shortened: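 One day after seeding in 1536-well plates, lung cancer cell lines were dosed by pin tool. Dosing was either single-drug or a fixed anchor-drug dose plus five library-drug doses (not always all listed) in √10 steps. After 5 days, nuclei were stained in one fix-and-stain step and counted on 4× images, and relative viability is the nuclei count of treated wells over that of vehicle wells, given as the median of duplicate plates.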

Cell Line	relative viability
COR-L23	0.229
HCC-827	0.436
NCI-H522	0.628
LCLC-103H	0.528
RERF-LC-KJ	0.515
NCI-H3122	0.439
BEN	0.456
UMC-11	0.234
LCLC-97TM1	0.231
NCI-H2085	0.737
NCI-H727	0.672
NCI-H838	0.344
NCI-H1793	0.364
201T	0.935
NCI-H2228	0.31
LOU-NH91	0.647
NCI-H1666	0.582
NCI-H650	0.809
ChaGo-K-1	0.206
NCI-H1993	0.612
NCI-H647	0.28
NCI-H2126	0.821
NCI-H1755	0.557
PC-3 [JPC-3]	0.87
NCI-H2087	0.258
NCI-H441	0.633
HOP-62	0.327
NCI-H2170	0.748

same assay, conditions: first compound 0.06325 µM

Cell Line	relative viability
PC-14	0.584
LXF-289	0.193
LC-2-ad	0.456
NCI-H1651	0.654
COR-L23	0.249
HCC-827	0.443
NCI-H522	0.579
LCLC-103H	0.339
RERF-LC-KJ	0.5
NCI-H3122	0.428
BEN	0.558
UMC-11	0.223
LCLC-97TM1	0.237
NCI-H2085	0.888
A-427	0.232
NCI-H727	0.648
NCI-H838	0.28

Cell Line	relative viability
NCI-H1793	0.349
201T	0.952
NCI-H2228	0.318
LOU-NH91	0.684
NCI-H1666	0.582
NCI-H650	0.683
ChaGo-K-1	0.217
NCI-H1993	0.583
NCI-H647	0.346
NCI-H2126	0.784
NCI-H1755	0.514
PC-3 [JPC-3]	0.902
NCI-H2087	0.235
NCI-H441	0.608
HOP-62	0.382
NCI-H2170	0.744

same assay, conditions: first compound 0.2 µM

Cell Line	relative viability
PC-14	0.562
LXF-289	0.233
LC-2-ad	0.486
SW 900	0.636
NCI-H1651	0.646
COR-L23	0.257
HCC-827	0.434
NCI-H522	0.508
LCLC-103H	0.463
RERF-LC-KJ	0.521
NCI-H3122	0.453
BEN	0.524
UMC-11	0.231
LCLC-97TM1	0.204
NCI-H2085	0.75
A-427	0.181
NCI-H727	0.573

Cell Line	relative viability
NCI-H838	0.285
NCI-H1793	0.391
201T	0.961
NCI-H2228	0.352
LOU-NH91	0.729
NCI-H1666	0.598
NCI-H650	0.773
ChaGo-K-1	0.219
NCI-H1993	0.671
NCI-H647	0.263
NCI-H2126	0.842
NCI-H1755	0.569
PC-3 [JPC-3]	0.822
NCI-H2087	0.222
NCI-H441	0.529
HOP-62	0.419
NCI-H2170	0.724

same assay, conditions: first compound 0.6325 µM

Cell Line	relative viability
PC-14	0.526
LXF-289	0.208
LC-2-ad	0.417
SW 900	0.533
NCI-H1651	0.604
COR-L23	0.216
HCC-827	0.376
NCI-H522	0.598
LCLC-103H	0.443
RERF-LC-KJ	0.481
NCI-H3122	0.383
BEN	0.477
UMC-11	0.213
LCLC-97TM1	0.197
NCI-H2085	0.738
A-427	0.198
NCI-H727	0.495

Cell Line	relative viability
NCI-H838	0.256
NCI-H1793	0.371
201T	0.946
NCI-H2228	0.176
LOU-NH91	0.584
NCI-H1666	0.547
NCI-H650	0.686
ChaGo-K-1	0.199
NCI-H1993	0.627
NCI-H647	0.357
NCI-H2126	0.819
NCI-H1755	0.571
PC-3 [JPC-3]	0.864
NCI-H2087	0.203
NCI-H441	0.541
HOP-62	0.328
NCI-H2170	0.709

same assay, conditions: first compound 2 µM

Cell Line	relative viability
PC-14	0.674
LXF-289	0.216
LC-2-ad	0.445
SW 900	0.586
NCI-H1651	0.545
COR-L23	0.172
HCC-827	0.398
NCI-H522	0.545
LCLC-103H	0.485
RERF-LC-KJ	0.485
NCI-H3122	0.395
BEN	0.481
UMC-11	0.212
LCLC-97TM1	0.253
NCI-H2085	0.849
A-427	0.283
NCI-H727	0.654

Cell Line	relative viability
NCI-H838	0.25
NCI-H1793	0.41
201T	0.921
NCI-H2228	0.353
LOU-NH91	0.746
NCI-H1666	0.62
NCI-H650	0.799
ChaGo-K-1	0.24
NCI-H1993	0.598
NCI-H647	0.254
NCI-H2126	0.849
NCI-H1755	0.552
PC-3 [JPC-3]	0.845
NCI-H2087	0.27
NCI-H441	0.683
HOP-62	0.39
NCI-H2170	0.747
